Measurements taken from publication PMC6271500, “Bowman-Birk Protease Inhibitor from Vigna unguiculata Seeds Enhances the Action of Bradykinin-Related Peptides” (Molecules, 2014).

What was measured:
[1] = system: bovine pancreatic trypsin; assay: Trypsin inhibition by BTCI (BAPNA substrate); format: biochemical; conditions: BTCI 10 µM, peptide 0–10 µM
Procedure: (§1) The inhibitory activities of BTCI against bovine pancreatic trypsin (25 kDa; A280^1% = 15.90) and chymotrypsin (24 kDa; A280^1% = 20.40) (Sigma Co.) were first determined in the absence of Bk and Bk-related peptides. Briefly, the residual enzymatic activities were assayed by mixing 40 µL of chymotrypsin (28.60 µM) or trypsin (2.57 µM) with BTCI at concentration range of 0–10 µM for trypsin and 0–40 µM for chymotrypsin at 25 °C for 15 minutes. After that, 200 µL of 0.40·mg·mL^−1 N-glutaryl-L-phenylalanine-p-nitroanilide (GPNA) in 50 mM Tris-HCl, 20 mM CaCl2, pH 7.6 for chymotrypsin assay or 0.43 mg·mL^−1 Nα-benzoyl-DL-arginine 4-nitroanilide hydrochloride (BAPNA) in 50 mM Tris-HCl, 20 mM CaCl2, pH 8.2 for trypsin assay were added. Substrate hydrolysis was done for 15 minutes and stopped by adding 30% (v/v) acetic acid. The enzymatic assays were also carried out in the presence of Bk at similar concentration of BTCI. The relative enzymatic activities were evaluated by the liberation of p-nitroanilide, which was monitored at 410 nm using a SpectraMax Plus 384 Microplate Reader spectrophotometer (Molecular Devices, Sunnyvale, CA, USA). The obtained values are an average of three independent measurements. Inhibition curves were obtained by plotting relative activities of the proteases vs. BTCI concentration in the absence or presence of Bk and Bk-related peptides. […]

[2] = system: BTCI; assay: Dynamic light scattering, BTCI-Bk complex formation; format: binding, Vigna unguiculata
Procedure: (§2) The hydrodynamic properties of the BTCI through the complex formation with Bk and analogues were monitored using DLS technique with laser source operated at 800 nm on the DynaPro LSR model (Wyatt Technology Corporation, Santa Barbara, CA, USA). The internal temperature was controlled by a Peltier system coupled to the detector. The Bk, Bk-related peptides, BTCI and BTCI-Bk, BTCI-Bk-related peptides complexes, were incubated for 30 minutes in 2 mM Tris-HCl pH 7.4 and then centrifuged at 5000 g and filtered ([…]) before the DLS experiments. The average of 100 acquisitions for each measure was considered for BTCI (25 µM) and synthetic Bk-related peptides (25 µM) separately and subsequently for the BTCI-Bk complexes (1:1). The formation of complexes was analyzed at 37 °C, considering the relationship of the scattered light intensity signal and the hydrodynamic diameter of the samples, using the Dynamics V6 program (Wyatt Technology Corporation).

[3] = system: guinea pig (Cavia porcellus) ileum; assay: Smooth muscle constriction force assay, guinea pig ileum
Procedure: Male guinea pigs (Cavia porcellus) weighing between 200 and 300 g and fasted for 24 h were euthanized using an overdose of anesthetic at 120 mg/kg (ketamine and xylazine). The protocol was approved by the Committee on the Ethics of Animal Experiments of the Institute of Biology, University of Brasilia (Proc. Number 737402/2008). Segments of 2 cm from the terminal portion of the ileum were removed and washed in Tyrode’s solution (g/L: 8.00 NaCl,0.20 KCl, 0.20 CaCl2, 0.21 MgCl2), and attached to a glass rod that was immersed in a physiological bath chamber with a capacity of 10 mL containing Tyrode solution at 37 °C. In the opposite region, a thread of silk was attached to the F-60 isometric transducer connected to a polygraph (NARCO Bio-Systems, Houston, TX, USA). The bath was kept aerated constantly with carbogen (95% O2 + 5% CO2). Previously, as a control, smooth muscle response was analyzed using Bk from Sigma Aldrich. Experiments were done in triplicate, and constriction force was analyzed by addition of Bk and analogues in the absence or presence of BTCI, in three concentrations: 1, 5 or 10 µM. The hypotensive effects of the complexes were also evaluated in the presence of trypsin or chymotrypsin. After each experiment, the bath solution was exchanged three times in order to remove the drug used. Statistical analysis was carried out using the Paleontological Statistics (PAST) Software Package for Education and Data Analysis. A value of Student’s t-test p < 0.05 was considered to denote a significant difference.

[4] = system: BTCI; assay: Fluorescence quenching of BTCI by Bk-related peptides; format: binding, Vigna unguiculata; conditions: for Binding constant Kb (association) of BTCI in complex with peptide / Stern-Volmer quenching constant KSV of BTCI in complex with peptide: BTCI 25 µM, peptide 25-500 µM; for Stern-Volmer quenching constant KSV of BTCI in complex with peptide: excitation 295 nm, emission at 355 nm
Procedure: Fluorescence measurements were performed at pH 5.0, 7.4 and 9.0 and 25 °C using the Jasco FP-6500 spectrofluorimeter (Jasco Analytical Instruments) coupled to a Jasco ETC-273T Peltier system (Jasco Analytical Instruments) with water circulation. Both excitation and emission slit were fitted to 5.0 nm and the excitation and emission wavelength were 295 nm and 300–400 nm, respectively. The concentration of BTCI was 25 µM, whereas the concentration of Bk and Bk-related peptides varied from 25 to 500 µM. The BTCI in complex with peptides were investigated by fluorescence quenching as a function of pH. The averages of five fluorescence spectra were recorded and processed by the program Spectra Manager (Jasco Analytical Instruments). The fluorescence emissions were fitted according to the classic Stern-Volmer equation (Equation (2)): F0/F = 1 + KSV[Q] (2) where F and F0 are the fluorescence intensities in the presence and absence of quencher, respectively, KSV is Stern-Volmer constant and Q is the concentration of the quencher.
The binding constants for BTCI, Bk and Bk-related peptides interaction were calculated according to Equation (3): Log[(F0 − F)/F] = LogKb + nLog[Q] (3) where Kb is the binding constant and n is the number of binding sites per BTCI [47].

[5] = system: bovine chymotrypsin; assay: Chymotrypsin inhibition by BTCI (GPNA substrate); format: biochemical; conditions: BTCI 40 µM, peptide 0–10 µM
Procedure: as §1

[6] = Dynamic light scattering, free peptides and free BTCI; format: physicochemical; conditions: 25 µM, 2 mM Tris-HCl pH 7.4, 37 °C
Procedure: as §2

## [Val]^1[Thr]^6-bradykinyl-Gln-Ser [Bk2]
[1]
  effect of peptide on BTCI inhibition of trypsin: did not interfer in their activities
[2]; 1:1 complex, pH 7.4, 37 °C
  polydispersity of peptide complexed with BTCI (in words): moderate polidispersity
[2]; BTCI 25 µM : peptide 25 µM (1:1), 30 min, 2 mM Tris-HCl pH 7.4, 37 °C
  hydrodynamic diameter of BTCI in the presence of peptide: increased from 1.7 nm to 3.3 nm
[3]; 10 µM, after activation by trypsin treatment
  contraction force relative to Bk: approximately 1.3 fold
[3]; data not shown
  smooth muscle contraction when pretreated with BTCI and serine proteases: did not induce muscle contraction
[3]; free peptide, 1, 5, 10 µM, 37 °C, triplicate
  smooth muscle contraction: unable to exert their contractive effects
[3]; peptide pretreated with trypsin, 1.0, 5.0, 10.0 µM
  smooth muscle contraction after trypsin pretreatment: induced smooth muscle contraction, in a concentration-responsive manner (Figure 7), and at higher levels than Bk in free state
[4]; pH 5.0, 25 °C
  binding sites (n) per BTCI molecule: 1.04
  Binding constant Kb (association) of BTCI in complex with peptide: 590 M⁻¹
  Stern-Volmer quenching constant KSV of BTCI in complex with peptide: 425 M⁻¹
[4]; pH 7.4, 25 °C
  binding sites (n) per BTCI molecule: 0.89
  Binding constant Kb (association) of BTCI in complex with peptide: 220 M⁻¹
  Stern-Volmer quenching constant KSV of BTCI in complex with peptide: 509 M⁻¹
[4]; pH 9.0, 25 °C
  binding sites (n) per BTCI molecule: 1.23
  Binding constant Kb (association) of BTCI in complex with peptide: 1810 M⁻¹
  Stern-Volmer quenching constant KSV of BTCI in complex with peptide: 384 M⁻¹
[5]
  effect of peptide on BTCI inhibition of chymotrypsin: did not interfer in their activities
[6]
  polydispersity, peptide: lower than 0.15
